{"source": "patent US20260306436A1", "about": "“TRETINOIN LIPOSOME FORMULATIONS AND USES THEREOF TO TREAT CANCER” (Highfield BioPharmaceuticals Corporation, priority 2023, published 2026)", "origin": "cited, not measured here", "key": {"[1]": {"test_system": "BSA", "conditions": "stated for the release system with BSA"}, "[2]": {"conditions": "background statement"}, "[3]": {"conditions": "background statement", "remark": "listed apart in the source"}}, "data": [{"smiles": "CC1=C(/C=C/C(C)=C/C=C/C(C)=C/C(=O)O)C(C)(C)CCC1", "note": "[all-trans retinoic acid]", "values": [{"measurement": "Protein binding rate", "setting": "[1]", "value": 95, "unit": "%"}, {"measurement": "Water solubility", "setting": "[2]", "value": "very low"}, {"measurement": "Plasma half-life", "setting": "[3]", "value": "short"}]}]}
